Read-outs that look alike come from different tables or passages of the source.
Assays:
Assay in all cases: whole plant or invertebrate
Assay type in all cases: in vivo
[1] = test system: silverleaf whitefly (Bemisia argentifolii Bellows and Perring)
Method in brief: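 Whitefly-egg-infested 12–14-day-old cotton plants sprayed with compound in 10% acetone/90% water plus 300 ppm non-ionic surfactant, in triplicate. Plants then held 13 days at 28 °C and 50–70% relative humidity before mortality assessment.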

[2] = test system: western flower thrip (Frankliniella occidentalis Pergande)
Method in brief: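 Bean plants aged 5–7 days received a spray of test solution (10% acetone, 90% water, 300 ppm surfactant), in triplicate. Adult thrips (22–27 per unit) were introduced once the plants had dried for 1 h. Incubation lasted 7 days at 25° C and 45–55% RH.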

[3] = test system: potato leafhopper (Empoasca fabae Harris)
Method in brief: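 Contact and/or systemic test: five adult leafhoppers aged 18–21 days were released onto Longio bean plants 1 h after spraying. The spray was 1 mL per unit in acetone/water (10:90) with 300 ppm non-ionic surfactant, run in triplicate. Plants were kept 6 days in a growth chamber at 19–21 °C and 50–70% humidity.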

[4] = test system: corn planthopper (Peregrines maidis)
Method in brief: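 Contact/systemic test on corn planthopper: 10–20 nymphs (18- to 20-day-old) released onto young maize plants 1 h after spraying, with three replicate units per treatment. Spray solution was acetone/water 10:90 containing 300 ppm non-ionic spreader; units kept 6 days at 19-21° C., 50-70% RH.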

[5] = test system: cotton melon aphid (Aphis gossypii Glover)
Method in brief: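 Sprays in acetone–water with 300 ppm non-ionic surfactant, at ppm concentrations, applied to aphid-infested (30–40 per plant) 6–7-day cotton, in triplicate. Evaluation after 6 days in a growth chamber at 19–21 °C and 50–70% relative humidity, covering contact and/or systemic action.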

[6] = test system: green peach aphid (Myzus persicae Sulzer)
Method in brief: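 Compounds formulated in 10% acetone/water with 300 ppm X-77 surfactant were atomized onto aphid-infested radish seedlings, with three replicates per treatment. Infestation was 30–40 aphids transferred on excised leaf pieces, covering contact and systemic exposure. Test units stayed 6 days in a growth chamber at 19–21 °C and 50–70% relative humidity.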

[7] = rate 1 ppm, single compound, spray, 7 days
[8] = rate 500 ppm, single compound, spray, 7 days

## CNC(=O)c1cc(Cl)cc(C)c1NC(=O)c1cc(Br)nn1-c1ncccc1Cl [Compound 1, 3-bromo-N-[4-chloro-2-methyl-6-[(methylamino)carbonyl]phenyl]-1-(3-chloro-2-pyridinyl)-1H-pyrazole-5-carboxamide]
[1]; Bemisia argentifolii, in Gossypium hirsutum, Table 2A, Compound 1 8 ppm, read-out: % Mortality (observed)
  mortality at 8 ppm: 4%
[1]; Bemisia argentifolii, in Gossypium hirsutum, Table 2A, Compound 1 10 ppm, read-out: % Mortality (observed)
  mortality at 10 ppm: 1%
[1]; Bemisia argentifolii, in Gossypium hirsutum, Table 2B, rate 6 ppm, read-out: % mortality (obs)
  mortality at 6 ppm: 3%
[1]; Bemisia argentifolii, in Gossypium hirsutum, Table 2B, rate 8 ppm, read-out: % mortality (obs)
  mortality at 8 ppm: 3%
[1]; Bemisia argentifolii, in Gossypium hirsutum, Table 2B, rate 10 ppm, read-out: % mortality (obs)
  mortality at 10 ppm: 5%
[2]; Frankliniella occidentalis, 168 h, rate 10 ppm, single compound, spray, 7 days, read-out: % mortality (obs)
  mortality at 10 ppm: 44%
[2]; Frankliniella occidentalis, 168 h, rate 50 ppm, single compound, spray, 7 days, read-out: % mortality (obs)
  mortality at 50 ppm: 49%
[2]; Frankliniella occidentalis, 168 h, rate 100 ppm, single compound, spray, 7 days, read-out: % mortality (obs)
  mortality at 100 ppm: 46%
[2]; Frankliniella occidentalis, Table 3A, Compound 1 8 ppm, read-out: % Mortality (observed)
  mortality at 8 ppm: 3%
[2]; Frankliniella occidentalis, Table 3A, Compound 1 25 ppm, read-out: % Mortality (observed)
  mortality at 25 ppm: 17%
[2]; Frankliniella occidentalis, Table 3A, Compound 1 81 ppm, read-out: % Mortality (observed)
  mortality at 81 ppm: 30%
[3]; Empoasca fabae, Table 4A, Compound 1 0.4 ppm, read-out: % Mortality (observed)
  mortality at 0.4 ppm: 0%
[3]; Empoasca fabae, Table 4A, Compound 1 1.4 ppm, read-out: % Mortality (observed)
  mortality at 1.4 ppm: 0%
[3]; Empoasca fabae, Table 4A, Compound 1 4.6 ppm, read-out: % Mortality (observed)
  mortality at 4.6 ppm: 0%
[3]; Empoasca fabae, rate 4 ppm, alone, read-out: % mortality (obs)
  mortality at 4 ppm: 23%
[3]; Empoasca fabae, rate 14 ppm, alone, read-out: % mortality (obs)
  mortality at 14 ppm: 37%
[3]; Empoasca fabae, rate 50 ppm, alone, read-out: % mortality (obs)
  mortality at 50 ppm: 54%
[4]; Corn Plant Hopper, rate 20 ppm, read-out: % mortality (obs)
  mortality at 20 ppm: 15%
[4]; Corn Plant Hopper, rate 100 ppm, read-out: % mortality (obs)
  mortality at 100 ppm: 19%
[4]; Corn Plant Hopper, rate 500 ppm, read-out: % mortality (obs)
  mortality at 500 ppm: 28%
[4]; Table 5A, Compound 1 5 ppm, read-out: % Mortality (observed)
  mortality at 5 ppm: 6%
[4]; Table 5A, Compound 1 50 ppm, read-out: % Mortality (observed)
  mortality at 50 ppm: 9%
[4]; Table 5A, Compound 1 150 ppm, read-out: % Mortality (observed)
  mortality at 150 ppm: 28%
[5]; Aphis gossypii, Table 6A, Compound 1 0.8 ppm, read-out: % Mortality (observed)
  mortality at 0.8 ppm: 12%
[5]; Aphis gossypii, Table 6A, Compound 1 4.5 ppm, read-out: % Mortality (observed)
  mortality at […]: 32%
[5]; Aphis gossypii, Table 6A, Compound 1 25 ppm, read-out: % Mortality (observed)
  mortality at 25 ppm: 23%
[5]; Aphis gossypii, rate 4 ppm, read-out: % mortality (obs)
  mortality at 4 ppm: 25%
[5]; Aphis gossypii, rate 20 ppm, read-out: % mortality (obs)
  mortality at 20 ppm: 41%
[5]; Aphis gossypii, rate 100 ppm, read-out: % mortality (obs)
  mortality at 100 ppm: 49%
[6]; Myzus persicae, in Raphanus sativus, Green Peach Aphid, rate 10 ppm, read-out: % mortality (obs)
  mortality at 10 ppm: 24%
[6]; Myzus persicae, in Raphanus sativus, Green Peach Aphid, rate 20 ppm, read-out: % mortality (obs)
  mortality at 20 ppm: 35%
[6]; Myzus persicae, in Raphanus sativus, Green Peach Aphid, rate 40 ppm, read-out: % mortality (obs)
  mortality at 40 ppm: 36%
[6]; Myzus persicae, in Raphanus sativus, Table 7A, Compound 1 2.1 ppm, read-out: % Mortality (observed)
  mortality at 2.1 ppm: 5%
[6]; Myzus persicae, in Raphanus sativus, Table 7A, Compound 1 3.9 ppm, read-out: % Mortality (observed)
  mortality at 3.9 ppm: 2%
[6]; Myzus persicae, in Raphanus sativus, Table 7A, Compound 1 7.5 ppm, read-out: % Mortality (observed)
  mortality at […]: 6%

## COC(=O)N(C(=O)N1CO[C@@]2(C(=O)OC)Cc3cc(Cl)ccc3C2=N1)c1ccc(OC(F)(F)F)cc1 [Indoxacarb]
[1]; Table 2B, rate 1 ppm
  % mortality (obs): 0%
[1]; Table 2B, rate 3 ppm
  % mortality (obs): 0%
[1]; Table 2B, rate 10 ppm
  % mortality (obs): 0%
[2]; [7]
  % mortality (obs): 50%
[2]; [8]
  % mortality (obs): 50%
[2]; rate 3000 ppm, single compound, spray, 7 days
  % mortality (obs): 50%
[3]; rate 0.5 ppm, alone
  % mortality (obs): 33%
[3]; rate 1 ppm, alone
  % mortality (obs): 20%
[3]; rate 2 ppm, alone
  % mortality (obs): 27%
[4]; Corn Plant Hopper, rate 50 ppm
  % mortality (obs): 3%
[4]; Corn Plant Hopper, rate 500 ppm
  % mortality (obs): 4%
[4]; Corn Plant Hopper, rate 3000 ppm
  % mortality (obs): 18%
[5]; rate 10 ppm
  % mortality (obs): 16%
[5]; rate 20 ppm
  % mortality (obs): 28%
[5]; rate 30 ppm
  % mortality (obs): 34%
[6]; Green Peach Aphid, rate 10 ppm
  % mortality (obs): 9%
[6]; Green Peach Aphid, rate 20 ppm
  % mortality (obs): 7%
[6]; Green Peach Aphid, rate 30 ppm
  % mortality (obs): 8%

## CNC(=O)O/N=C(\SC)C(=O)N(C)C [Oxamyl]
[1]; Table 2B, rate 0.1 ppm
  % mortality (obs): 2%
[1]; Table 2B, rate 0.3 ppm
  % mortality (obs): 0%
[1]; Table 2B, rate 1 ppm
  % mortality (obs): 1%
[2]; [7]
  % mortality (obs): 30%
[2]; rate 50 ppm, single compound, spray, 7 days
  % mortality (obs): 40%
[2]; [8]
  % mortality (obs): 100%
[3]; rate 0.1 ppm, alone
  % mortality (obs): 20%
[3]; rate 2 ppm, alone
  % mortality (obs): 20%
[3]; rate 100 ppm, alone
  % mortality (obs): 100%
[4]; Corn Plant Hopper, rate 0.08 ppm
  % mortality (obs): 2%
[4]; Corn Plant Hopper, rate 0.16 ppm
  % mortality (obs): 5%
[4]; Corn Plant Hopper, rate 0.2 ppm
  % mortality (obs): 6%
[5]; rate 1 ppm
  % mortality (obs): 29%
[5]; rate 10 ppm
  % mortality (obs): 37%
[5]; rate 1000 ppm
  % mortality (obs): 100%
[6]; Green Peach Aphid, rate 40 ppm
  % mortality (obs): 8%
[6]; Green Peach Aphid, rate 70 ppm
  % mortality (obs): 18%
[6]; Green Peach Aphid, rate 100 ppm
  % mortality (obs): 35%

— patent US8937089B2, “Synergistic mixtures of anthranilamide invertebrate pest control agents” (priority 2004, dated 2015)
